One may read the logP as a log measure of how a compound divides between an organic and an aqueous phase.

Converted amounts (≈) assume the structure as drawn.

The nature of series [1]: Lipophilicity, log P of the compound. The class given is physicochemical. Particulars: octanol/water.
Series [2] has as its system Mycobacterium tuberculosis. Kind of series: microbe, parasite or virus in culture. Particulars: H37Rv, 672 h.
Description: Antimycobacterial activity against Mycobacterium tuberculosis H37Rv after 28 days by agar dilution method

`Cc1ccc2c(c1)[C@@H]1OCCC[C@@H]1[C@H](c1ccc3oc4ccccc4c3c1)N2`: in series [1], the logP is 4.42. Besides, the MIC in series [2] came out at 12.5 mg/L (≈ 33.8 µM).

`Cn1c2ccccc2c2cc([C@H]3Nc4ccc(F)cc4[C@@H]4OCCC[C@H]34)ccc21` gave a lipophilicity (logP) in series [1] of 4.25. Besides, in series [2], the MIC was 3.13 mg/L (≈ 8.1 µM).

With `Cn1c2ccccc2c2cc([C@H]3Nc4ccccc4[C@@H]4OCCC[C@H]34)ccc21` (relative stereo), the log partition coefficient (logP) in series [1] came out at 4.1. The same molecule yielded an MIC in series [2] of 12.5 mg/L (≈ 33.9 µM).

Molecule `c1ccc2c(c1)N[C@@H](c1ccc3oc4ccccc4c3c1)[C@H]1CCCO[C@@H]21` (relative stereo) displayed a logP in series [1] of 3.92. The same molecule came in with an MIC in series [2] of 25 mg/L (≈ 70.3 µM).

For `c1ccc2c(c1)N[C@H](c1ccc3oc4ccccc4c3c1)[C@H]1CCCO[C@@H]21` (relative stereo), the logP in series [1] was found to be 3.92. The MIC in series [2] came out at 25 mg/L (≈ 70.3 µM).

In series [1], `Cc1ccc2c(c1)[C@@H]1OCCC[C@@H]1[C@@H](c1ccc3oc4ccccc4c3c1)N2` (relative stereo) had a logP of 4.42. Besides, in series [2], the MIC was 12.5 mg/L (≈ 33.8 µM).

Consider `COc1ccc2c(c1)[C@@H]1OCCC[C@@H]1[C@H](c1ccc3oc4ccccc4c3c1)N2` (relative stereo), for which, in series [1], the logP was 3.81. Also, the MIC in series [2] amounted to 12.5 mg/L (≈ 32.4 µM).

Turning to `COc1ccc2c(c1)[C@@H]1OCCC[C@@H]1[C@@H](c1ccc3oc4ccccc4c3c1)N2` (relative stereo), the logP in series [1] was determined as 3.81. The MIC in series [2] is 12.5 mg/L (≈ 32.4 µM).

`Clc1ccc2c(c1)[C@@H]1OCCC[C@@H]1[C@H](c1ccc3oc4ccccc4c3c1)N2` (relative stereo): the logP in series [1] came to 4.49. This molecule showed an MIC in series [2] of 25 mg/L (≈ 64.1 µM).

Consider `Clc1ccc2c(c1)[C@@H]1OCCC[C@@H]1[C@@H](c1ccc3oc4ccccc4c3c1)N2` (relative stereo), for which the logP in series [1] turned out to be 4.49. In series [2], the MIC was determined as 6.25 mg/L (≈ 16 µM).

On to `Brc1ccc2c(c1)[C@@H]1OCCC[C@@H]1[C@H](c1ccc3oc4ccccc4c3c1)N2` (relative stereo), for which the logP in series [1] was 4.76. The molecule also registered an MIC in series [2] of 12.5 mg/L (≈ 28.8 µM).

Turning to `Brc1ccc2c(c1)[C@@H]1OCCC[C@@H]1[C@@H](c1ccc3oc4ccccc4c3c1)N2` (relative stereo), in series [1], the logP stood at 4.76. This molecule also returned an MIC in series [2] of 6.25 mg/L (≈ 14.4 µM).

In turn, `Fc1ccc2c(c1)[C@@H]1OCCC[C@@H]1[C@H](c1ccc3oc4ccccc4c3c1)N2` (relative stereo) came in with a logP in series [1] of 4.09. The same molecule returned an MIC in series [2] of 3.13 mg/L (≈ 8.38 µM).

Regarding `Fc1ccc2c(c1)[C@@H]1OCCC[C@@H]1[C@@H](c1ccc3oc4ccccc4c3c1)N2` (relative stereo), the lipophilicity (logP) in series [1] is 4.09. In series [2], the MIC turned out to be 3.13 mg/L (≈ 8.38 µM).

The molecule `Cn1c2ccccc2c2cc([C@@H]3Nc4ccccc4[C@@H]4OCCC[C@H]34)ccc21` (relative stereo) had a logP in series [1] of 4.1. Also, the MIC in series [2] was found to be 25 mg/L (≈ 67.8 µM).

`Cc1ccc2c(c1)[C@@H]1OCCC[C@@H]1[C@H](c1ccc3c(c1)c1ccccc1n3C)N2` (relative stereo) displayed a logP in series [1] of 4.58. This molecule also gave an MIC in series [2] of 25 mg/L (≈ 65.4 µM).

Molecule `Cc1ccc2c(c1)[C@@H]1OCCC[C@@H]1[C@@H](c1ccc3c(c1)c1ccccc1n3C)N2` (relative stereo) registered a logP in series [1] of 4.58. In series [2], the MIC was found to be 25 mg/L (≈ 65.4 µM).

Molecule `COc1ccc2c(c1)[C@@H]1OCCC[C@@H]1[C@@H](c1ccc3c(c1)c1ccccc1n3C)N2` (relative stereo) registered a logP in series [1] of 3.97. The MIC in series [2] amounted to 25 mg/L (≈ 62.7 µM).

In turn, `Cn1c2ccccc2c2cc([C@@H]3Nc4ccc(Cl)cc4[C@@H]4OCCC[C@H]34)ccc21` (relative stereo) showed a logP in series [1] of 4.65. This molecule came in with an MIC in series [2] of 12.5 mg/L (≈ 31 µM).

`Cn1c2ccccc2c2cc([C@H]3Nc4ccc(Cl)cc4[C@@H]4OCCC[C@H]34)ccc21` (relative stereo) returned a logP in series [1] of 4.65. This molecule also showed an MIC in series [2] of 6.25 mg/L (≈ 15.5 µM).

Molecule `Cn1c2ccccc2c2cc([C@@H]3Nc4ccc(Br)cc4[C@@H]4OCCC[C@H]34)ccc21` (relative stereo) returned a logP in series [1] of 4.93. This molecule registered an MIC in series [2] of 25 mg/L (≈ 55.9 µM).

In series [1], `Cn1c2ccccc2c2cc([C@H]3Nc4ccc(Br)cc4[C@@H]4OCCC[C@H]34)ccc21` (relative stereo) gave a logP of 4.93. In series [2], this molecule returned an MIC of 6.25 mg/L (≈ 14 µM).

`Cn1c2ccccc2c2cc([C@@H]3Nc4ccc(F)cc4[C@@H]4OCCC[C@H]34)ccc21` (relative stereo) registered a logP in series [1] of 4.25. Also, the MIC in series [2] was found to be 6.25 mg/L (≈ 16.2 µM).

In series [2], `CC[C@@H](CO)NCCN[C@@H](CC)CO` [ETHAMBUTOL] yielded an MIC of 3.13 mg/L (≈ 15.3 µM).

As for `NNC(=O)c1ccncc1` [ISONIAZID], the MIC in series [2] was found to be 0.1 mg/L (≈ 0.729 µM).

As to `CO[C@H]1/C=C/O[C@@]2(C)Oc3c(C)c(O)c4c(O)c(c(/C=N/N5CCN(C)CC5)c(O)c4c3C2=O)NC(=O)/C(C)=C\C=C\[C@H](C)[C@H](O)[C@@H](C)[C@@H](O)[C@@H](C)[C@H](OC(C)=O)[C@@H]1C` [RIFAMPIN], the MIC in series [2] amounted to 0.2 mg/L (≈ 0.243 µM).

The record behind these values is ChEMBL document CHEMBL1828532, “Synthesis and antitubercular evaluation of novel dibenzo[b,d]furan and 9-methyl-9H-carbazole derived hexahydro-2H-pyrano[3,2-c]quinolines via Povarov reaction” (Eur J Med Chem, 2011).
